Data taken from patent US10160747B2, “Compounds and methods for kinase modulation, and indications therefor” (Plexxikon Inc., priority 2016, dated 2018).

Target: T1, BA/F3-FLT3-ITD + D835Y (Homo sapiens, UniProt P36888, D835Y, cells depend on it, form not given)
T1 sequence (P36888 with tags, fused parts or gaps INS600HVDFREYEYD/D835Y): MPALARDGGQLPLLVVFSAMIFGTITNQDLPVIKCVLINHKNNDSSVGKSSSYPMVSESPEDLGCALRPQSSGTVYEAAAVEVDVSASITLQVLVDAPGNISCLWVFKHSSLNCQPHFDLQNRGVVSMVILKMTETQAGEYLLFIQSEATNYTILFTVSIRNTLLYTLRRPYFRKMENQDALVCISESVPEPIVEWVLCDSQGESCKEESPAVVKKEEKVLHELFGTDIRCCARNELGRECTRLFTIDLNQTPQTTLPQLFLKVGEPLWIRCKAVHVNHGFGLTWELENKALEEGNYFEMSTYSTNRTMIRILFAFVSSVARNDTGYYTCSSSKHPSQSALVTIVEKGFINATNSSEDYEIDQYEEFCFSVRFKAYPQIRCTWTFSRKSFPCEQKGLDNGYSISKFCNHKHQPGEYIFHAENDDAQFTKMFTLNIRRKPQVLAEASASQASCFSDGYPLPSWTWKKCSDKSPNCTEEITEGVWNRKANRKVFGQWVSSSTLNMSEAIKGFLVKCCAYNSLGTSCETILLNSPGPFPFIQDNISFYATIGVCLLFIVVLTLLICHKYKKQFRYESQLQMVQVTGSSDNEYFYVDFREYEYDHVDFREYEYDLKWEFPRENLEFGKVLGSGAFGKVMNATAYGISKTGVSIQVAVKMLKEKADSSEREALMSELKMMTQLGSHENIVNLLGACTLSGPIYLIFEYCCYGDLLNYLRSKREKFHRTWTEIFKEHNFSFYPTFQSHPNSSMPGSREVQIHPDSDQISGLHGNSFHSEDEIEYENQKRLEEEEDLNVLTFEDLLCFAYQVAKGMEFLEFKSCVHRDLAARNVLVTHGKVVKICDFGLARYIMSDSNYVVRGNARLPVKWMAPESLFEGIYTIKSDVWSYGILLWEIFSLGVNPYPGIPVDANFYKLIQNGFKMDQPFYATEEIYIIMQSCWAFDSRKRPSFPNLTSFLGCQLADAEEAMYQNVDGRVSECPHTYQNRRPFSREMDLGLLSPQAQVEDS
Experiment: Engineered BA/F3 cell growth assay, FLT3 ITD/D835Y
Type: cell-based, murine
Settings: 3 d growth
Outline: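 Murine Ba/F3 cells transfected with full-length FLT3 ITD/D835Y, grown without IL-3 so growth depends on FLT3. Seeded at 1×10^4 cells/well, 8-point 1:3 series to 1 μM top (0.2% DMSO), 3 days at 37 °C. CellTiter-Glo luminescence (ATP) versus concentration gave IC50.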

GI50, 0.0001 to 10 µM:
CCC(=O)c1c[nH]c2ncc(-c3ccc(CC(=O)Nc4cnc(C)c(C(F)(F)F)c4)c(F)c3)cc12 [Compound P-0070, 2-[2-fluoro-4-(3-propanoyl-1H-pyrrolo[2,3-b]pyridin-5-yl)phenyl]-N-[6-methyl-5-(trifluoromethyl)-3-pyridyl]acetamide]
O=C(Cc1ccc(-c2cnc3[nH]nc(C4CC4)c3c2)cc1F)Nc1cncc(C(F)(F)F)c1 [Compound P-0072, 2-[4-(3-cyclopropyl-1H-pyrazolo[3,4-b]pyridin-5-yl)-2-fluoro-phenyl]-N-[5-(trifluoromethyl)-3-pyridyl]acetamide]
O=C(Cc1ccc(-c2cnc3[nH]nc(C4CC4)c3c2)cc1)Nc1cncc(C(F)(F)F)c1 [Compound P-0073, 2-[4-(3-cyclopropyl-1H-pyrazolo[3,4-b]pyridin-5-yl)phenyl]-N-[5-(trifluoromethyl)-3-pyridyl]acetamide]
O=C(Cc1ccc(-c2cnc3[nH]cc(Cl)c3n2)cc1F)Nc1cncc(C(F)(F)F)c1 [Compound P-0061, 2-[4-(7-chloro-5H-pyrrolo[2,3-b]pyrazin-2-yl)-2-fluoro-phenyl]-N-[5-(trifluoromethyl)-3-pyridyl]acetamide]
O=C(Cc1ccc(-c2cnc3[nH]cc(F)c3c2)cc1F)Nc1cncc(C(F)(F)F)c1 [Compound P-0053, 2-[2-fluoro-4-(3-fluoro-1H-pyrrolo[2,3-b]pyridin-5-yl)phenyl]-N-[5-(trifluoromethyl)-3-pyridyl]acetamide]
Cn1cnc(Nc2ncc(-c3ccc(CC(=O)Nc4cncc(C(F)(F)F)c4)c(F)c3)cn2)c1 [Compound P-0052, 2-[2-fluoro-4-[2-[(1-methylimidazol-4-yl)amino]pyrimidin-5-yl]phenyl]-N-[5-(trifluoromethyl)-3-pyridyl]acetamide]
Cc1ncc(NC(=O)Cc2ccc(-c3cnc4[nH]cc(F)c4c3)cc2F)cc1C(F)(F)F [Compound P-0062, 2-[2-fluoro-4-(3-fluoro-1H-pyrrolo[2,3-b]pyridin-5-yl)phenyl]-N-[6-methyl-5-(trifluoromethyl)-3-pyridyl]acetamide]
COc1ncc(NC(=O)Cc2ccc(-c3cnc4[nH]cc(F)c4c3)c(F)c2)cc1C(F)(F)F [Compound P-0048, 2-[3-fluoro-4-(3-fluoro-1H-pyrrolo[2,3-b]pyridin-5-yl)phenyl]-N-[6-methoxy-5-(trifluoromethyl)-3-pyridyl]acetamide]
COc1ncc(NC(=O)Cc2ccc(-c3cnc4[nH]cc(Cl)c4n3)cc2F)cc1C(F)(F)F [Compound P-0047, 2-[4-(7-chloro-5H-pyrrolo[2,3-b]pyrazin-2-yl)-2-fluoro-phenyl]-N-[6-methoxy-5-(trifluoromethyl)-3-pyridyl]acetamide]
COc1ncc(NC(=O)Cc2ccc(-c3cnc4[nH]cc(C(=O)C5CC5)c4c3)cc2F)cc1C(F)(F)F [Compound P-0036, 2-[4-[3-(cyclopropanecarbonyl)-1H-pyrrolo[2,3-b]pyridin-5-yl]-2-fluoro-phenyl]-N-[6-methoxy-5-(trifluoromethyl)-3-pyridyl]acetamide]
O=C(Cc1ccc(-c2cnc(Nc3cnn4ccccc34)nc2)cc1F)Nc1ccnc(C(F)(F)F)c1 [Compound P-0033, 2-[2-fluoro-4-[2-(pyrazolo[1,5-a]pyridin-3-ylamino)pyrimidin-5-yl]phenyl]-N-[2-(trifluoromethyl)-4-pyridyl]acetamide]
COc1ncc(NC(=O)Cc2ccc(-c3cnc4[nH]c(Cl)cc4c3)c(F)c2)cc1C(F)(F)F [Compound P-0046, 2-[4-(2-chloro-1H-pyrrolo[2,3-b]pyridin-5-yl)-3-fluoro-phenyl]-N-[6-methoxy-5-(trifluoromethyl)-3-pyridyl]acetamide]
O=C(Cc1ccc(-c2cnc(Nc3cnn(C(F)F)c3)nc2)c(F)c1)Nc1cc(C(F)(F)F)ccn1 [Compound P-0024, 2-[4-[2-[[1-(difluoromethyl)pyrazol-4-yl]amino]pyrimidin-5-yl]-3-fluoro-phenyl]-N-[4-(trifluoromethyl)-2-pyridyl]acetamide]
COc1ncc(NC(=O)Cc2ccc(-c3cnc4[nH]cc(C(C)=O)c4c3)cc2F)cc1C(F)(F)F [Compound P-0035, 2-[4-(3-acetyl-1H-pyrrolo[2,3-b]pyridin-5-yl)-2-fluoro-phenyl]-N-[6-methoxy-5-(trifluoromethyl)-3-pyridyl]acetamide]
CC(=O)c1c[nH]c2ncc(-c3ccc(CC(=O)Nc4cnc(C)c(C(F)(F)F)c4)c(F)c3)cc12 [Compound P-0063, 2-[4-(3-acetyl-1H-pyrrolo[2,3-b]pyridin-5-yl)-2-fluoro-phenyl]-N-[6-methyl-5-(trifluoromethyl)-3-pyridyl]acetamide]
Cc1ncc(NC(=O)Cc2ccc(-c3cnc4[nH]c(Cl)cc4c3)cc2F)cc1C(F)(F)F [Compound P-0067, 2-[4-(2-chloro-1H-pyrrolo[2,3-b]pyridin-5-yl)-2-fluoro-phenyl]-N-[6-methyl-5-(trifluoromethyl)-3-pyridyl]acetamide]
CC(=O)c1c[nH]c2ncc(-c3ccc(CC(=O)Nc4ccnc(C(F)(F)F)c4)c(F)c3)cc12 [Compound P-0031, 2-(4-(3-acetyl-1H-pyrrolo[2,3-b]pyridin-5-yl)-2-fluorophenyl)-N-(2-(trifluoromethyl)pyridin-4-yl)acetamide]
Cn1cc(Nc2ncc(-c3ccc(CC(=O)NCc4ccccn4)c(F)c3)cn2)cn1 [Compound P-0088, 2-[2-fluoro-4-[2-[(1-methylpyrazol-4-yl)amino]pyrimidin-5-yl]phenyl]-N-(2-pyridylmethyl)acetamide]
O=C(Cc1ccc(-c2cnc(Nc3cnn4ccccc34)nc2)c(F)c1)Nc1cncc(C(F)(F)F)c1 [Compound P-0071, 2-[3-fluoro-4-[2-(pyrazolo[1,5-a]pyridin-3-ylamino)pyrimidin-5-yl]phenyl]-N-[5-(trifluoromethyl)-3-pyridyl]acetamide]
Cn1cc(Nc2ncc(-c3ccc(CC(=O)NCc4ccc(C(F)(F)F)cn4)cc3)cn2)cn1 [Compound P-0162, 2-[4-[2-[(1-methylpyrazol-4-yl)amino]pyrimidin-5-yl]phenyl]-N-[[5-(trifluoromethyl)-2-pyridyl]methyl]acetamide]

Target: CSF1R (Homo sapiens, UniProt P07333)
Experiment: CSF1R 100 ATP 8 pt kinase assay (Table 6)
Type: biochemical
Settings: not given
Excerpt: The following Table 6 provides data indicating FLT3 ITD, D835Y and F691L; c-KIT and CSF1R biochemical and/or cell inhibitory activity for exemplary compounds as described herein.

Sequence of CSF1R (P07333 20-972, species assumed): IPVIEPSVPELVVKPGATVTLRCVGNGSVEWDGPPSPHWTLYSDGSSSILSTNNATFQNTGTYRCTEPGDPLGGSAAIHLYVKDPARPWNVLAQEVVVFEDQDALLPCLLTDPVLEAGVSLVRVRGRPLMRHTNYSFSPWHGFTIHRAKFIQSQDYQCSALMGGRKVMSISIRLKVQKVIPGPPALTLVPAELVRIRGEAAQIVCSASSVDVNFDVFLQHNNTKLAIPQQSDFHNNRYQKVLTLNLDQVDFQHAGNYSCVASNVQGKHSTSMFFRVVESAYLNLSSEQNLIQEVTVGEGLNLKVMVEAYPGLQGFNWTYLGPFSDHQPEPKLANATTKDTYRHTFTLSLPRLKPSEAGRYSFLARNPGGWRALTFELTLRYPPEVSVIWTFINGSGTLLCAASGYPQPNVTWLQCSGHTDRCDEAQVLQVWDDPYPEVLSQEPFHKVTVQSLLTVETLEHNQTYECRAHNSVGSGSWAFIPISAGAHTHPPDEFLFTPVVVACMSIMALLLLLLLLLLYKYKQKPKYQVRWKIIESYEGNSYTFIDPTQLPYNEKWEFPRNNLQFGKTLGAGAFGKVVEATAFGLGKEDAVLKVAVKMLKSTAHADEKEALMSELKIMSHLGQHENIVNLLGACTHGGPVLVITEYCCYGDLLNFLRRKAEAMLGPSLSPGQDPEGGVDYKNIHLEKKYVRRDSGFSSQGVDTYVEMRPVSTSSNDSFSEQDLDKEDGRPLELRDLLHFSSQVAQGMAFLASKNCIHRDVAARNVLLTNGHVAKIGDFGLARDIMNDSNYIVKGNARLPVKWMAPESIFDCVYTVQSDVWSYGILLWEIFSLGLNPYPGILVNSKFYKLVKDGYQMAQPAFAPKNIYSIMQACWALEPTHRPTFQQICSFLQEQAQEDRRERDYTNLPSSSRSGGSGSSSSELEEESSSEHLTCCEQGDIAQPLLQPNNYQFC

IC50, 0.0001 to 10 µM:
CCC(=O)c1c[nH]c2ncc(-c3ccc(CC(=O)Nc4cnc(C)c(C(F)(F)F)c4)c(F)c3)cc12 [Compound P-0070, 2-[2-fluoro-4-(3-propanoyl-1H-pyrrolo[2,3-b]pyridin-5-yl)phenyl]-N-[6-methyl-5-(trifluoromethyl)-3-pyridyl]acetamide]
O=C(Cc1ccc(-c2cnc3[nH]nc(C4CC4)c3c2)cc1F)Nc1cncc(C(F)(F)F)c1 [Compound P-0072, 2-[4-(3-cyclopropyl-1H-pyrazolo[3,4-b]pyridin-5-yl)-2-fluoro-phenyl]-N-[5-(trifluoromethyl)-3-pyridyl]acetamide]
O=C(Cc1ccc(-c2cnc3[nH]nc(C4CC4)c3c2)cc1)Nc1cncc(C(F)(F)F)c1 [Compound P-0073, 2-[4-(3-cyclopropyl-1H-pyrazolo[3,4-b]pyridin-5-yl)phenyl]-N-[5-(trifluoromethyl)-3-pyridyl]acetamide]
